Values belong to the compound of their own block, whether it stands above or below them.
Columns and labels:
[1] = target: T1, Advanced glycosylation end product-specific receptor (Homo sapiens, UniProt Q15109); assay: Inhibition of […] binding to human RAGE domain V expressed in CHO cells; assay type: cell-based
[2] = target: T1, Advanced glycosylation end product-specific receptor; assay: Displacement of [I125]amyloid beta (1 to 40) from human RAGE domain V expressed in CHO cells; assay type: cell-based
[3] = target: T1, Advanced glycosylation end product-specific receptor; assay: Inhibition of HMGB1 binding to human RAGE domain V expressed in CHO cells; assay type: cell-based
[4] = target: T1, Advanced glycosylation end product-specific receptor; assay: Inhibition of CML binding to RAGE (unknown origin) by ELISA
[5] = target: T1, Advanced glycosylation end product-specific receptor; assay: Inhibition of amyloid beta binding to RAGE (unknown origin) by ELISA
[6] = target: T1, Advanced glycosylation end product-specific receptor; assay: Inhibition of […] binding to RAGE (unknown origin) by ELISA
[7] = Cytotoxicity against mouse HT22 cells assessed as cell survival at 10 uM after 18 hrs by MTT assay relative to control; assay type: cell-based, HT-22; settings: read-out: Survival
[8] = target: T1, Advanced glycosylation end product-specific receptor; assay: Binding affinity to human RAGE cytoplasmic domain by tryptophan fluorescence assay
[9] = target: T1, Advanced glycosylation end product-specific receptor; assay: Binding affinity to human C-terminal His-tagged RAGE domain V (24 to 125 residues) expressed in Escherichia coli BL21(DE3) by tryptophan fluorescence assay
[10] = target: T1, Advanced glycosylation end product-specific receptor; assay: Inhibition of amyloid beta binding to human RAGE […] expressed in HEK293 cells after 10 mins by MST assay; assay type: cell-based
[11] = target: T1, Advanced glycosylation end product-specific receptor; assay: Binding affinity to human His-tagged RAGE domain VC1 expressed in Escherichia coli by fluorescence titration method
[12] = target: Advanced glycosylation end product-specific receptor (Rattus norvegicus, UniProt Q63495); assay: Binding affinity to Wistar rat His-tagged RAGE domain VC1 expressed in Escherichia coli by fluorescence titration method
[13] = target: T1, Advanced glycosylation end product-specific receptor; assay: Inhibition of amyloid beta binding to biotin-labeled human RAGE domain V at 20 uM after 60 mins by ELISA relative to cotrol

T1 sequence (Q15109 whole entry, the tested form may be a part): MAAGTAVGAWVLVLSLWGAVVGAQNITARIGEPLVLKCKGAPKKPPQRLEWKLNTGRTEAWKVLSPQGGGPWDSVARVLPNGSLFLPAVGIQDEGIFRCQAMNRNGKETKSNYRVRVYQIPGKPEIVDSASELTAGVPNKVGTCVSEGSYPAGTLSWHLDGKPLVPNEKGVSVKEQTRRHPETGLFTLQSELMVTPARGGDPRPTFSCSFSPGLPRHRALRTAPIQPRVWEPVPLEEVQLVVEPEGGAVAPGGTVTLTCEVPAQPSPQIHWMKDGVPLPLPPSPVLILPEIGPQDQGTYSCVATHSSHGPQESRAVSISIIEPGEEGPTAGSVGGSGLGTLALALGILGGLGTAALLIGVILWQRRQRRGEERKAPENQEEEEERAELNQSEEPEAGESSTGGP
Advanced glycosylation end product-specific receptor (Rattus norvegicus, UniProt Q63495), sequence (Q63495 whole entry, the tested form may be a part): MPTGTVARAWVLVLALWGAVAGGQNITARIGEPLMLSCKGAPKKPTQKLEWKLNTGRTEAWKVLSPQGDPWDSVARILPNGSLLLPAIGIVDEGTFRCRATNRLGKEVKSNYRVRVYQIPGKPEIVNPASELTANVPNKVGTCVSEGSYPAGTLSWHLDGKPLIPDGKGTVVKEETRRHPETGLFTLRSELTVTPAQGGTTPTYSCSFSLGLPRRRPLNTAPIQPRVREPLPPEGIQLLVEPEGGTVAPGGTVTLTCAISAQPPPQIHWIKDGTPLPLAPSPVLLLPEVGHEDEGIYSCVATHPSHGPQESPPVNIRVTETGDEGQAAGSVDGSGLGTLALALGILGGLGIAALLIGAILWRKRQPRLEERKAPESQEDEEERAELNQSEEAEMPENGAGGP

Structure (SMILES): CCCCOc1cc(OCCCN(CC)CC)ccc1NC(=O)c1cc(-c2ccc(Oc3ccc(F)cc3)cc2)nn1C
viability at 18 h, 10 µM [7]: 10.3%

Structure (SMILES): CC1NC(NCCC[C@H](N)C(=O)O)=NC1=O (stereo partly specified)
Kd [9]: 0.03 to 0.04 µM

Structure (SMILES): O=C1CCC[C@@H]2[C@H]3CCCN4CCC[C@@H](CN12)[C@@H]34 [MATRINE]
Kd [10]: 24000 µM

Structure (SMILES): CCN(CC)CCOc1cccc(Nc2nc(-c3ccc(Cl)cc3)cc(-c3ccc(Cl)cc3)n2)c1
viability at 18 h, 10 µM [7]: 37.3%

Structure (SMILES): CCN(CC)CCOc1ccc(OC)cc1NC(=O)c1nc(-c2ccc(F)cc2)cc(-c2ccc(F)cc2)n1
inhibition [13]: > 4%
viability at 18 h, 10 µM [7]: 100%

Continued, values first:

Ki [1]: 0.23 µM
Ki [2]: 0.025 µM
Ki [3]: 0.148 µM
Structure (SMILES): O=C(c1ccc(Cl)cc1)N(Cc1ccccc1)C1CCCCC1

IC50 [4]: < 4 µM
IC50 [5]: < 0.5 µM
IC50 [6]: < 0.5 µM
Structure (SMILES): CCCCn1c([C@@H](Cc2ccc(OCCc3ccc(Cl)cc3)cc2)NC(=O)OC(C)(C)C)nc2cc(OCCCN(CC)CC)ccc21

Kd [8]: 0.006 µM
Structure (SMILES): COc1cc(SC)ccc1C(=O)Nc1cccc(C)n1

Kd [8]: 0.001 µM
Structure (SMILES): Cc1nc2ccccc2n1CC(O)Cn1c2ccccc2c2ccccc21 (stereo unspecified)

Kd [11]: 0.043 µM
Kd [12]: 0.043 µM
Structure (SMILES): O=C(O)c1cccnc1C(=O)O [QUINOLINIC ACID]

Kd [8]: 0.002 µM
Structure (SMILES): COC(=O)c1cc(O)c(O)cc1NC(=O)C1Oc2ccccc2OC1C (stereo unspecified)

Kd [8]: 0.032 µM
Structure (SMILES): Cc1c(Cl)cccc1NC(=O)CNC(=O)c1ccccc1F

IC50 [4]: < 0.5 µM
IC50 [5]: < 0.5 µM
IC50 [6]: < 0.5 µM
Structure (SMILES): CCCCOc1cc(OCCCN(CC)CC)ccc1NC(=O)C(CC1CCN(Cc2ccccc2)CC1)NC(=O)OCC1c2ccccc2-c2ccccc21 (stereo unspecified)
